Measured values published in US7378090B2, “Alleviation of the memory deficits and memory components of psychiatric dysfunctions by altering atypical PKM activity” (The Research Foundation of State University of New York, priority 2001, dated 2008).
Entries after “also recorded” stand apart in the source; their conditions may differ.

Columns and labels:
CA1 pyramidal cells = conditions: sustained application of low concentrations; cited from earlier work
Drosophila [1] = test: Olfactory-avoidance conditioning, learning (tested immediately after single-cycle training); assay type: in vivo; conditions: wild-type flies fed 100 μM chelerythrine for 3 h
Excerpt: In Drosophila, the best characterized assay for associative learning and memory is an odor-avoidance behavioral task (T. Tully, et al. J. Comp. Physiol. A157, 263-277 (1985) incorporated herein by reference). This classical (Pavlovian) conditioning involves exposing the flies to two odors (the conditioned stimuli, or CS), one at a time, in succession. During one of these odor exposures (the CS+), the flies are simultaneously subjected to electric shock (the unconditioned stimulus, or US), whereas exposure to the other odor (the CS−) lacks this negative reinforcement. […]
(§1) Pavlovian learning and memory in Drosophila. […] The performance index (PI) was calculated by subtracting the number of flies making the incorrect choice from those making the correct one, dividing by the total number of flies, and multiplying by 100. To avoid odor-avoidance biases, the PI of each single n was calculated by taking an average performance of two groups of flies, one group trained with the CS+ being OCT, the other with the CS+ being MCH.
(§2) A 4% (wt/vol) sucrose solution was used as a vehicle for the chelerythrine feeding. […] Feeding was monitored by placing 1/50 volume of green food coloring into the solutions, which could then be seen in the abdomens of flies after eating. […]

PKMζ = target: T1, PKMζ (Homo sapiens, UniProt Q05513); conditions: cited from earlier work
T1 sequence (Q05513 1-409 isoform Q05513-2): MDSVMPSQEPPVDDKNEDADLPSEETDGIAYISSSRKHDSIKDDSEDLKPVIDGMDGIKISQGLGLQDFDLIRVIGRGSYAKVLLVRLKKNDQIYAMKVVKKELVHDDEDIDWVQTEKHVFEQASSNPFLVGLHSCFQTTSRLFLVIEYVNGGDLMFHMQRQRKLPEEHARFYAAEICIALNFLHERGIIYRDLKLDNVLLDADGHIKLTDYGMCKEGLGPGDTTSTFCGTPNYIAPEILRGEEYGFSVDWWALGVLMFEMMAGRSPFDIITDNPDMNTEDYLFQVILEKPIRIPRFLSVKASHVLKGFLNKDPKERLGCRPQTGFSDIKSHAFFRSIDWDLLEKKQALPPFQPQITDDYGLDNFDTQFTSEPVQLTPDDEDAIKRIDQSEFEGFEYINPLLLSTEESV

Drosophila [2] = test: Olfactory-avoidance classical (Pavlovian) conditioning, memory after training; assay type: in vivo; conditions: for 24-h memory after massed training: wild-type flies fed 25, 50 or 100 μM chelerythrine in sucrose for 3 h, three cycles of massed training
Excerpt: In Drosophila, the best characterized assay for associative learning and memory is an odor-avoidance behavioral task (T. Tully, et al. J. Comp. Physiol. A157, 263-277 (1985) incorporated herein by reference). This classical (Pavlovian) conditioning involves exposing the flies to two odors (the conditioned stimuli, or CS), one at a time, in succession. During one of these odor exposures (the CS+), the flies are simultaneously subjected to electric shock (the unconditioned stimulus, or US), whereas exposure to the other odor (the CS−) lacks this negative reinforcement. Following training, the flies are then placed at a ‘choice point’, where the odors come from opposite directions, and expected to decide which odor to avoid. By convention, learning is defined as the fly's performance when testing occurs immediately after training. A single training trial produces strong learning: a typical response is that >90% of the flies avoid the CS+. Performance of wild-type flies from this single-cycle training decays over a roughly 24-hour period until flies once again distribute evenly between the two odors. Flies can also form long-lasting associative olfactory memories, but normally this requires repetitive training regimens.
as §1, with “Drosophila. To assess learning and memory in Drosophila, an olfactory-avoidance classical (Pavlovian) conditioning protocol was used.” for “Drosophila.”, “MCH. […]” for “MCH.”
as §2

Drosophila [3] = conditions: cited from earlier work

COc1ccc2c(c[n+](C)c3c4cc5c(cc4ccc23)OCO5)c1OC [chelerythrine]
LTP maintenance (CA1 pyramidal cells): abolished | learning (Drosophila [1]): not different; also recorded: unaffected | inhibition of other PKC isotypes (PKMζ; higher concentrations): inhibits other PKC isotypes at higher concentrations | inhibition of PKMζ (PKMζ; low concentrations): selectively inhibit PKMζ at low concentrations | 24-h memory after massed training (Drosophila [2]): inhibited 24-hour memory formation in a dose-dependent manner | 24-h memory after massed training (Drosophila [2]; listed as Chelerythrine): inhibits 24-h memory after massed training in a dose-dependent manner

C[C@@H]1C[C@@H]([C@H](O)CC2CC(=O)NC(=O)C2)C(=O)[C@@H](C)C1 [cycloheximide]
anesthesia-resistant memory (ARM) (Drosophila [3]; massed or spaced training): insensitive | memory after spaced training of radish mutants (Drosophila [3]; radish mutants): completely blocked | long-term memory (LTM) (Drosophila [3]; spaced training): blocked

B1: FL-MaPKCζ: full-length (FL) mouse atypical PKCζ expressed from heat-shock transgene (protein, UniProt Q02956 1-592, looked up)
chain: MPSRTDPKMDRSGGRVRLKAHYGGDILITSVDAMTTFKDLCEEVRDMCGLHQQHPLTLKWVDSEGDPCTVSSQMELEEAFRLVCQGRDEVLIIHVFPSIPEQPGMPCPGEDKSIYRRGARRWRKLYRANGHLFQAKRFNRGAYCGQCSERIWGLSRQGYRCINCKLLVHKRCHVLVPLTCRRHMDSVMPSQEPPVDDKNDGVDLPSEETDGIAYISSSRKHDNIKDDSEDLKPVIDGVDGIKISQGLGLQDFDLIRVIGRGSYAKVLLVRLKKNDQIYAMKVVKKELVHDDEDIDWVQTEKHVFEQASSNPFLVGLHSCFQTTSRLFLVIEYVNGGDLMFHMQRQRKLPEEHARFYAAEICIALNFLHERGIIYRDLKLDNVLLDADGHIKLTDYGMCKEGLGPGDTTSTFCGTPNYIAPEILRGEEYGFSVDWWALGVLMFEMMAGRSPFDIITDNPDMNTEDYLFQVILEKPIRIPRFLSVKASHVLKGFLNKDPKERLGCRPQTGFSDIKSHAFFRSIDWDLLEKKQTLPPFQPQITDDYGLDNFDTQFTSEPVQLTPDDEDVIKRIDQSEFEGFEYINPLLLSAEESV
modifications: full-length
notes: full-length (FL) mouse atypical PKCζ expressed from heat-shock transgene
24-hour memory after single-cycle training (Drosophila [2]; transgene induced by 30-min 32° C. heat shock after training): not observed
